Experimental data as given in PubChem BioAssay AID328 (DTP/NCI, 2004).
Where “and” joins values, the source holds several entries; their conditions need not be identical. Equal entries are not always repeated. Inconclusive results and toxic doses are left out.

Test system: BDF1 mice, P388 leukemia ip, median survival T/C
Test: NCI In Vivo Anticancer Drug Screen. Data for tumor model P388 Leukemia (intraperitoneal) in B6D2F1 (BDF1) mice
Details: endpoint: median survival time, higher = longer survival
Summary of the method: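 Steps: implant the tumour, treat one group with compound and another with vehicle, record survival, then divide treated by control.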

[1] = dose: 50.0 mg/kg/injection, schedule: Q01DX009 (ip), vehicle: saline with Tween-80
[2] = dose: 100.0 mg/kg/injection, schedule: Q01DX009 (ip), vehicle: saline with Tween-80
[3] = dose: 100.0 mg/kg/injection, schedule: Q04DX003 (ip), vehicle: saline with Tween-80
[4] = dose: 200.0 mg/kg/injection, schedule: Q04DX003 (ip), vehicle: saline with Tween-80
[5] = dose: 400.0 mg/kg/injection, schedule: Q04DX003 (ip), vehicle: saline with Tween-80

CO[C@H](C(=O)[C@@H](O)[C@@H](C)O)[C@@H]1Cc2cc3cc(OC4CC(OC5CC(O)C(O)C(C)O5)C(O)C(C)O4)c(C)c(O)c3c(O)c2C(=O)[C@H]1OC1CC(OC2CC(OC3CC(C)(O)C(O)C(C)O3)C(O)C(C)O2)C(O)C(C)O1 (some centres not stated)
T/C (dose: 0.05 mg/kg/injection, schedule: Q01DX009 (ip), vehicle: water): 120 % of control and 110 % of control | T/C (dose: 0.06 mg/kg/injection, schedule: Q01DX001 (ip), vehicle: water): 100 % of control | T/C (dose: 0.1 mg/kg/injection, schedule: Q01DX015 (ip), vehicle: water): 100 % of control | T/C (dose: 0.12 mg/kg/injection, schedule: Q01DX009 (ip), vehicle: clinical formulation): 114 % of control | T/C (dose: 0.12 mg/kg/injection, schedule: Q#A X005 (ip), vehicle: saline): 118 % of control | T/C (dose: 0.13 mg/kg/injection, schedule: Q01DX001 (ip), vehicle: water): 100 % of control | T/C (dose: 0.13 mg/kg/injection, schedule: Q01DX009 (ip), vehicle: saline): 122 % of control | T/C (dose: 0.19 mg/kg/injection, schedule: Q01DX010 (ip), vehicle: saline): 110 % of control | T/C (dose: 0.2 mg/kg/injection, schedule: Q01DX009 (ip), vehicle: water): 150 % of control | T/C (dose: 0.25 mg/kg/injection, schedule: Q01DX001 (im), vehicle: water): 100 % of control | T/C (dose: 0.25 mg/kg/injection, schedule: Q01DX001 (ip), vehicle: water): 104 % of control | T/C (dose: 0.25 mg/kg/injection, schedule: Q01DX005 (ip), vehicle: saline): 100 % of control | T/C (dose: 0.25 mg/kg/injection, schedule: Q01DX009 (ip), vehicle: clinical formulation): 121 % of control | T/C (dose: 0.25 mg/kg/injection, schedule: Q01DX010 (oral), vehicle: saline): 100 % of control | T/C (dose: 0.25 mg/kg/injection, schedule: Q01DX015 (ip), vehicle: water): 115 % of control | T/C (dose: 0.35 mg/kg/injection, schedule: Q01DX009 (ip), vehicle: water): 150 % of control | T/C (dose: 0.5 mg/kg/injection, schedule: Q01DX001 (im), vehicle: water): 95 % of control | T/C (dose: 0.5 mg/kg/injection, schedule: Q01DX001 (ip), vehicle: saline): 100 % of control | T/C (dose: 0.5 mg/kg/injection, schedule: Q01DX001 (ip), vehicle: water): 110 % of control | T/C (dose: 0.5 mg/kg/injection, schedule: Q01DX005 (ip), vehicle: saline): 100 % of control | T/C (dose: 0.5 mg/kg/injection, schedule: Q01DX009 (ip), vehicle: water): 150 % of control | T/C (dose: 0.5 mg/kg/injection, schedule: Q01DX010 (oral), vehicle: saline): 100 % of control | T/C (dose: 0.5 mg/kg/injection, schedule: Q02DX005 (ip), vehicle: water): 90 % of control | T/C (dose: 0.5 mg/kg/injection, schedule: Q04DX003 (ip), vehicle: saline): 100 % of control | T/C (dose: 0.54 mg/kg/injection, schedule: Q01DX005 (ip), vehicle: water): 175 % of control | T/C (dose: 0.65 mg/kg/injection, schedule: Q01DX009 (ip), vehicle: water): 95 % of control | T/C (dose: 0.65 mg/kg/injection, schedule: Q04DX003 (ip), vehicle: water): 115 % of control | T/C (dose: 0.75 mg/kg/injection, schedule: Q01DX010 (ip), vehicle: water): 118 % of control | T/C (dose: 1.0 mg/kg/injection, schedule: Q01DX001 (im), vehicle: water): 108 % of control | T/C (dose: 1.0 mg/kg/injection, schedule: Q01DX001 (ip), vehicle: saline): 100 % of control and 109 % of control | T/C (dose: 1.0 mg/kg/injection, schedule: Q01DX009 (ip), vehicle: clinical formulation): 191 % of control | T/C (dose: 1.0 mg/kg/injection, schedule: Q01DX009 (ip), vehicle: saline): 94 % of control and 95 % of control | T/C (dose: 1.0 mg/kg/injection, schedule: Q01DX010 (oral), vehicle: saline): 100 % of control | T/C (dose: 1.0 mg/kg/injection, schedule: Q04DX003 (ip), vehicle: saline): 91 % of control and 118 % of control | T/C (dose: 1.08 mg/kg/injection, schedule: Q04DX003 (ip), vehicle: water): 113 % of control | T/C (dose: 1.5 mg/kg/injection, schedule: Q01DX010 (ip), vehicle: saline): 180 % of control | T/C (dose: 1.5 mg/kg/injection, schedule: Q01DX010 (oral), vehicle: water): 91 % of control | T/C (dose: 1.8 mg/kg/injection, schedule: Q04DX003 (ip), vehicle: water): 103 % of control | T/C (dose: 2.0 mg/kg/injection, schedule: Q01DX001 (ip), vehicle: saline): 118 % of control | T/C (dose: 2.0 mg/kg/injection, schedule: Q01DX009 (ip), vehicle: saline): 31 % of control | T/C (dose: 2.0 mg/kg/injection, schedule: Q01DX010 (oral), vehicle: saline): 100 % of control | T/C (dose: 2.0 mg/kg/injection, schedule: Q01DX010 (oral), vehicle: water): 91 % of control | T/C (dose: 2.5 mg/kg/injection, schedule: Q01DX010 (oral), vehicle: water): 91 % of control | T/C (dose: 50.0 mg/kg/injection, schedule: Q01DX010 (ip), vehicle: water): 100 % of control | T/C (dose: 7.5 micrograms/kg/injection, schedule: Q03HX008 (ip), vehicle: saline): 100 % of control | T/C (dose: 7.5 micrograms/kg/injection, schedule: Q04DX024 (ip), vehicle: saline): 95 % of control | T/C (dose: 63.0 micrograms/kg/injection, schedule: Q01DX010 (ip), vehicle: saline): 109 % of control | T/C (dose: 94.0 micrograms/kg/injection, schedule: Q01DX010 (ip), vehicle: saline): 100 % of control | T/C (dose: 125.0 micrograms/kg/injection, schedule: Q01DX010 (ip), vehicle: saline): 118 % of control | T/C (dose: 188.0 micrograms/kg/injection, schedule: Q01DX010 (ip), vehicle: saline): 113 % of control | T/C (dose: 375.0 micrograms/kg/injection, schedule: Q01DX010 (ip), vehicle: saline): 113 % of control

N=C(Oc1ccccc1)c1ccccc1
T/C [1]: 100 % of control | T/C [2]: 102 % of control | T/C (dose: 200.0 mg/kg/injection, schedule: Q01DX009 (ip), vehicle: saline with Tween-80): 102 % of control

CCCCCC1(O)C2CCCC1CCC2 (configuration not stated)
T/C (dose: 50.0 mg/kg/injection, schedule: Q01DX001 (ip), vehicle: saline sonified): 105 % of control | T/C (dose: 50.0 mg/kg/injection, schedule: Q01DX001 (ip), vehicle: suspension in saline): 98 % of control | T/C (dose: 100.0 mg/kg/injection, schedule: Q01DX001 (ip), vehicle: saline sonified): 105 % of control | T/C (dose: 100.0 mg/kg/injection, schedule: Q01DX001 (ip), vehicle: suspension in saline): 104 % of control | T/C (dose: 200.0 mg/kg/injection, schedule: Q01DX001 (ip), vehicle: suspension in saline): 107 % of control

O=C(COc1ccccc1[N+](=O)[O-])Nc1cccnc1
T/C [3]: 100 % of control | T/C [4]: 95 % of control | T/C [5]: 100 % of control

CC(C(N)C(=O)O)C(O)c1ccc(O)cn1 (configuration not stated)
T/C (dose: 45.0 mg/kg/injection, schedule: Q01DX009 (ip), vehicle: water): 109 % of control | T/C (dose: 90.0 mg/kg/injection, schedule: Q01DX009 (ip), vehicle: water): 102 % of control | T/C (dose: 180.0 mg/kg/injection, schedule: Q01DX009 (ip), vehicle: water): 102 % of control

CSC(N)=Nc1ccc(C(=O)O)cc1
T/C [3]: 100 % of control | T/C [4]: 104 % of control | T/C [5]: 95 % of control

CC(=O)Nc1ccc(NC(=O)c2ccc([As](O)O)cc2)cc1
T/C (dose: 29.0 mg/kg/injection, schedule: Q04DX003 (ip), vehicle: Klucel (hydroxypropylcellulose) (HPC)): 109 % of control | T/C (dose: 45.0 mg/kg/injection, schedule: Q01DX009 (ip), vehicle: saline): 102 % of control | T/C (dose: 45.0 mg/kg/injection, schedule: Q04DX003 (ip), vehicle: Klucel (hydroxypropylcellulose) (HPC)): 113 % of control | T/C (dose: 65.0 mg/kg/injection, schedule: Q01DX009 (ip), vehicle: saline): 116 % of control | T/C (dose: 200.0 mg/kg/injection, schedule: Q01DX009 (ip), vehicle: Klucel (hydroxypropylcellulose) (HPC)): 170 % of control | T/C (dose: 265.0 mg/kg/injection, schedule: Q01DX009 (ip), vehicle: Klucel (hydroxypropylcellulose) (HPC)): 159 % of control

CC(C)(CC(=O)O)c1ccccc1
T/C (dose: 25.0 mg/kg/injection, schedule: Q04DX003 (ip), vehicle: saline): 89 % of control and 109 % of control | T/C (dose: 50.0 mg/kg/injection, schedule: Q04DX003 (ip), vehicle: saline): 104 % of control and 120 % of control | T/C (dose: 100.0 mg/kg/injection, schedule: Q04DX003 (ip), vehicle: saline): 102 % of control and 106 % of control | T/C (dose: 200.0 mg/kg/injection, schedule: Q04DX003 (ip), vehicle: saline): 102 % of control and 110 % of control and 113 % of control | T/C (dose: 400.0 mg/kg/injection, schedule: Q04DX003 (ip), vehicle: saline): 105 % of control

CC12CCCCC1=Nc1ccc3ccccc3c12 (configuration not stated)
T/C (dose: 100.0 mg/kg/injection, schedule: Q01DX009 (ip), vehicle: saline + alcohol): 93 % of control

Cc1nnc2sc3c(Cl)c4nn5c(C)nnc5sc4c(Cl)c3nn12
T/C [1]: 92 % of control | T/C [2]: 100 % of control
